Like-named read-outs stand apart in the source and are kept apart here.
Experiments:
[1] = test system: MM1S cells; experiment: Half inhibitory concentration (IC50) on MM1S tumor cell proliferation (CCK-8); type: cell-based; settings: Homo sapiens, MM1.S, MM1S cell proliferation inhibitory activity, 72 hours of treatment, read-out: IC50(nM)/MM1S cell line
Method: The multiple myeloma cell line used was: MM1S (myeloma (immunoglobulin A lambda), B lymphoblasts), purchased from American Type Culture Collection (ATCC). The medium is RPMI1640 supplemented with 10% FBS and 1% Penicillin-Streptomycin (penicillin and streptomycin). The cells used were identified as correct cells by STR cells, and were negative for mycoplasma through routine inspections.
(§1) The cells used in this present disclosure were cultured in a 37° C. incubator containing 5% CO2. The complete cell culture medium was RPMI 1640 medium with 10% fetal bovine serum, and the final concentrations of penicillin and streptomycin were 100 U/mL, respectively.
MM1S cells were seeded in 100 μL RPMI1640 complete medium at a density of 15000 cells/well. 100 μL of the inoculated cells were treated with 0.5 μL diluted thio-substituted compound of formula (IV) to be tested of the present disclosure at 10 successively decreasing concentrations (starting at the highest concentration of 10 μM/1 μM; 5-fold serial dilutions). After 72 hours of treatment, the cell viability was determined according to the CCK-8 reagent operating instructions. The negative control was DMSO, and the positive control was a commercial inhibitor. After CCK-8 treatment for 2 h, the value of O.D.450 was measured using a microplate reader.

[2] = test system: MDA-MB-231 cells; experiment: Half inhibitory concentration (IC50) on BET-expressing tumor cells, CCK-8, MDA-MB-231; type: cell-based; settings: Homo sapiens, 48/72 h, read-out: IC50 (nM)/MDA-MB-231 cell line
Method: (§2) BET-expressing cells MV-4-11 cells (human B granulocytic leukemia cells), MDA-MB-231 cells (human breast cancer cells), MDA-MB-468 cells (human breast cancer cells), MDA-MB-453 Cells (human breast cancer cells), MM1S cells (myeloma (immunoglobulin A lambda), B lymphoblasts) and SR cells (human large cell immunoblast lymphoma) were purchased from the American Type Culture Collection (ATCC).
as §1, with “1640/IMDM/DMEM” for “1640”, “respectively. All cells were tested negative for mycoplasma with mycoplasma detection kit before the experiment.” for “respectively.”
(§3) Determination of the Half Inhibitory Concentration (IC50) of PROTAD Compounds on Tumor Cells
(§4) MV-411 cells, MM1S cells and SR cells were seeded in 100 μL IMDM/RPMI1640/DMEM complete medium at a density of 15000/10000 cells/well; MDA-MB-231 cells, MDA-MB-468 cells, and MDA-MB453 cells were seeded in 100 μL IMDM/RPMI1640/DMEM complete medium at a density of 3000/5000 cells/well, respectively. 100 μL of the inoculated cells were treated with 0.5 μL diluted PROTAD compounds of the present disclosure to be tested at 10 successively decreasing concentrations (starting at the highest concentration of 10 μM; 5-fold serial dilutions). After the cells were treated with the tested drugs 48/72 h, the cell viability was determined according to the CCK-8 reagent manual. The negative control was DMSO, and the positive control was a commercial inhibitor. After CCK-8 treatment for 2 h, the value of O.D.450 was measured using a microplate reader.

[3] = test system: MV-4-11 cells; experiment: Half inhibitory concentration (IC50) on BET-expressing tumor cells, CCK-8, MV-4-11; settings: Homo sapiens, MV4-11, read-out: IC50 (nM)/MV-4-11 cell line, MV-4-11 cells, 48/72 h, CCK-8
[4] = test system: MDA-MB-468 cells; experiment: Half inhibitory concentration (IC50) on BET-expressing tumor cells, CCK-8, MDA-MB-468; type: cell-based; settings: Homo sapiens, 48/72 h, read-out: IC50 (nM)/MDA-MB-468 cell line
Method: as §2
as §1, with “1640/IMDM/DMEM” for “1640”, “respectively. All cells were tested negative for mycoplasma with mycoplasma detection kit before the experiment.” for “respectively.”
as §3, §4

[5] = test system: MM1S cells; experiment: Half inhibitory concentration (IC50) on BET-expressing tumor cells, CCK-8, MM1S; type: cell-based; settings: Homo sapiens, MM1.S, 48/72 h, read-out: IC50 (nM)/MM1S cell line
Method: as §2
as §1, with “1640/IMDM/DMEM” for “1640”, “respectively. All cells were tested negative for mycoplasma with mycoplasma detection kit before the experiment.” for “respectively.”
as §3, §4

[6] = test system: MDA-MB-453 cells; experiment: Half inhibitory concentration (IC50) on BET-expressing tumor cells, CCK-8, MDA-MB-453; type: cell-based, human; settings: 48/72 h, read-out: IC50 (nM)/MDA-MB-453 cell line
Method: as §2
as §1, with “1640/IMDM/DMEM” for “1640”, “respectively. All cells were tested negative for mycoplasma with mycoplasma detection kit before the experiment.” for “respectively.”
as §3, §4

[7] = Homo sapiens, MDA-MB-453, MDA-MB-453 cells

Row | Compound | IC50 [1] [nM] | IC50 [2] [nM] | IC50 [3] [nM] | IC50 [4] [nM] | IC50 [5] [nM] | IC50 [6, 7] [nM] | IC50 ([6]; MDA-MB-453 cells) [nM]
1 | Nc1cccc2c1C(=O)N(C1CCC(=O)NC1=O)C2=O (centres unmarked) [Pomalidomide, reference compound] | 9.38 | – | – | – | – | – | –
2 | Cc1sc2c(c1C)C(c1ccc(Cl)cc1)=N[C@@H](CC(=O)NCCCSc1cccc3c1C(=O)N(C1CCC(=O)NC1=O)C3=O)c1nnc(C)n1-2 (stereo partly drawn) [SIAIS171013, 2-((S)-4-(4-chlorophenyl)-2,3,9-trimethyl-6H-thieno[3,2-f][1,2,4]triazolo[4,3-a][1,4]diazepin-6-yl)-N-(3-((2-(2,6-dioxopiperidin-3-yl)-1,3-dioxoisoindolin-4-yl)thio)propyl)acetamide] | – | > 2820 | 8.6 ± 8.7 | > 300 | 22.6 | 1090 | –
3 | Cc1sc2c(c1C)C(c1ccc(Cl)cc1)=N[C@@H](CC(=O)NCCSc1cccc3c1C(=O)N(C1CCC(=O)NC1=O)C3=O)c1nnc(C)n1-2 (stereo partly drawn) [SIAIS171036, 2-((S)-4-(4-chlorophenyl)-2,3,9-trimethyl-6H-thieno[3,2-f][1,2,4]triazolo[4,3-a][1,4]diazepin-6-yl)-N-(2-((2-(2,6-dioxopiperidin-3-yl)-1,3-dioxoisoindolin-4-yl)thio)ethyl)acetamide] | – | 242 ± 65 | 4.5 ± 3.2 | 100 ± 21 | 8.6 | 163 | 214
4 | Cc1sc2c(c1C)C(c1ccc(Cl)cc1)=N[C@@H](CC(=O)NCCCCCCSc1cccc3c1C(=O)N(C1CCC(=O)NC1=O)C3=O)c1nnc(C)n1-2 (stereo partly drawn) [SIAIS171039, 2-((S)-4-(4-chlorophenyl)-2,3,9-trimethyl-6H-thieno[3,2-f][1,2,4]triazolo[4,3-a][1,4]diazepin-6-yl)-N-(6-((2-(2,6-dioxopiperidin-3-yl)-1,3-dioxoisoindolin-4-yl)thio)hexyl)acetamide] | – | 98 ± 82 | 2.7 ± 2.5 | 92 ± 43 | 0.82 | 167 | 162
5 | Cc1sc2c(c1C)C(c1ccc(Cl)cc1)=N[C@@H](CC(=O)NCCCCCCCSc1cccc3c1C(=O)N(C1CCC(=O)NC1=O)C3=O)c1nnc(C)n1-2 (stereo partly drawn) [SIAIS171040, 2-((S)-4-(4-chlorophenyl)-2,3,9-trimethyl-6H-thieno[3,2-f][1,2,4]triazolo[4,3-a][1,4]diazepin-6-yl)-N-(7-((2-(2,6-dioxopiperidin-3-yl)-1,3-dioxoisoindolin-4-yl)thio)heptyl)acetamide] | – | 69 ± 38 | 2.2 ± 2 | 46 ± 12 | 2.78 | 85 | 75.7
6 | Cc1sc2c(c1C)C(c1ccc(Cl)cc1)=N[C@@H](CC(=O)NCCCCCCCCSc1cccc3c1C(=O)N(C1CCC(=O)NC1=O)C3=O)c1nnc(C)n1-2 (stereo partly drawn) [SIAIS171049, 2-((S)-4-(4-chlorophenyl)-2,3,9-trimethyl-6H-thieno[3,2-f][1,2,4]triazolo[4,3-a][1,4]diazepin-6-yl)-N-(8-((2-(2,6-dioxopiperidin-3-yl)-1,3-dioxoisoindolin-4-yl)thio)octyl)acetamide] | – | 645 ± 249 | 7.2 ± 9.2 | 1730 ± 1650 | 3.06 | 166 | 237
7 | NCCSc1cccc2c1CN(C1CCC(=O)NC1=O)C2=O (centres unmarked) [SIAIS171123, 3-(4-((2-aminoethyl)thio)-1-oxoisoindolin-2-yl)piperidine-2,6-dione] | 71.4 | – | – | – | – | – | –
8 | NCCCSc1cccc2c1CN(C1CCC(=O)NC1=O)C2=O (centres unmarked) [SIAIS171124, 3-(4-((3-aminopropyl)thio)-1-oxoisoindolin-2-yl)piperidine-2,6-dione] | 56.9 | – | – | – | – | – | –
9 | NCCCCSc1cccc2c1CN(C1CCC(=O)NC1=O)C2=O (centres unmarked) [SIAIS171131, 3-(4-((4-aminobutyl)thio)-1-oxoisoindolin-2-yl)piperidine-2,6-dione] | 6.61 | – | – | – | – | – | –
10 | NCCCCCSc1cccc2c1CN(C1CCC(=O)NC1=O)C2=O (centres unmarked) [SIAIS171132, 3-(4-((5-aminopentyl)thio)-1-oxoisoindolin-2-yl)piperidine-2,6-dione] | 8.27 | – | – | – | – | – | –
11 | NCCCCCCSc1cccc2c1CN(C1CCC(=O)NC1=O)C2=O (centres unmarked) [SIAIS171134, 3-(4-((6-aminohexyl)thio)-1-oxoisoindolin-2-yl)piperidine-2,6-dione] | 4.77 | – | – | – | – | – | –
12 | NCCCCCCCSc1cccc2c1CN(C1CCC(=O)NC1=O)C2=O (centres unmarked) [SIAIS171135, 3-(4-((7-aminoheptyl)thio)-1-oxoisoindolin-2-yl)piperidine-2,6-dione] | 4.31 | – | – | – | – | – | –
13 | NCCCCCCCCSc1cccc2c1CN(C1CCC(=O)NC1=O)C2=O (centres unmarked) [SIAIS171136, 3-(4-((8-aminooctyl)thio)-1-oxoisoindolin-2-yl)piperidine-2,6-dione] | 4.22 | – | – | – | – | – | –
14 | Cc1sc2c(c1C)C(c1ccc(Cl)cc1)=N[C@@H](CC(=O)NCCSc1cccc3c1CN(C1CCC(=O)NC1=O)C3=O)c1nnc(C)n1-2 (stereo partly drawn) [SIAIS171138, 2-((S)-4-(4-chlorophenyl)-2,3,9-trimethyl-6H-thieno[3,2-f][1,2,4]triazolo[4,3-a][1,4]diazepin-6-yl)-N-(2-((2-(2,6-dioxopiperidin-3-yl)-1-oxoisoindolin-4-yl)thio)ethyl)acetamide] | – | > 10000 | 8.6 ± 9.1 | > 1740 | 3.1 | 2630 | 2800
15 | Cc1sc2c(c1C)C(c1ccc(Cl)cc1)=N[C@@H](CC(=O)NCCCSc1cccc3c1CN(C1CCC(=O)NC1=O)C3=O)c1nnc(C)n1-2 (stereo partly drawn) [SIAIS171139, 2-((S)-4-(4-chlorophenyl)-2,3,9-trimethyl-6H-thieno[3,2-f][1,2,4]triazolo[4,3-a][1,4]diazepin-6-yl)-N-(3-((2-(2,6-dioxopiperidin-3-yl)-1-oxoisoindolin-4-yl)thio)propyl)acetamide] | – | > 10000 | 1.1 ± 0.6 | > 10000 | 2.03 | 452 | –
16 | Cc1sc2c(c1C)C(c1ccc(Cl)cc1)=N[C@@H](CC(=O)NCCCCCCCSc1cccc3c1CN(C1CCC(=O)NC1=O)C3=O)c1nnc(C)n1-2 (stereo partly drawn) [SIAIS171144, 2-((S)-4-(4-chlorophenyl)-2,3,9-trimethyl-6H-thieno[3,2-f][1,2,4]triazolo[4,3-a][1,4]diazepin-6-yl)-N-(7-((2-(2,6-dioxopiperidin-3-yl)-1-oxoisoindolin-4-yl)thio)heptyl)acetamide] | – | 55 ± 31 | 0.9 ± 0.8 | 9.6 ± 2.9 | 0.7 | 52.3 | 63.9
17 | Cc1sc2c(c1C)C(c1ccc(Cl)cc1)=N[C@@H](CC(=O)NCCCCCCCCSc1cccc3c1CN(C1CCC(=O)NC1=O)C3=O)c1nnc(C)n1-2 (stereo partly drawn) [SIAIS171145, 2-((S)-4-(4-chlorophenyl)-2,3,9-trimethyl-6H-thieno[3,2-f][1,2,4]triazolo[4,3-a][1,4]diazepin-6-yl)-N-(8-((2-(2,6-dioxopiperidin-3-yl)-1-oxoisoindolin-4-yl)thio)octyl)acetamide] | – | 537 ± 148 | 2 ± 1.8 | 948 ± 241 | 1.2 | 135 | 222
18 | O=C1CCC(N2Cc3c(SCCCCCCBr)cccc3C2=O)C(=O)N1 (centres unmarked) [SIAIS1216133, 3-(4-(6-bromohexylthio)-1-oxoisoindolin-2-yl)piperidine-2,6-dione] | 1.27 ± 0.13 | – | – | – | – | – | –
19 | O=C1CCC(N2Cc3c(SCCCCCCCBr)cccc3C2=O)C(=O)N1 (centres unmarked) [SIAIS1216135, 3-(4-(7-bromoheptylthio)-1-oxoisoindolin-2-yl)piperidine-2,6-dione] | 1.23 ± 0.42 | – | – | – | – | – | –
